Experimental data reported in ChEMBL document CHEMBL1201862, “PubChem BioAssay data set” (2004).
Structures can show the parent of a compound that is named as a salt. Calls of active or inactive are those of the source.

Key:
[1] = Luminescence Cell-Based Dose Retest to Confirm Inhibitors of Cancer Stem Cells. [Related pubchem assays (depositor defined):AID2717, AID2721]; format: functional; details: Homo sapiens
[2] = Luminescence Cell-Based Dose Response HTS to Identify Inhibitors of 5'UTR Stem-Loop Driven Prion Protein mRNA Translation in H4 Neuroglioblastoma Cells. [Related pubchem assays: 1827 (Project Summary), 1813 (Primary HTS)]; format: functional
[3] = inhibitors of firefly luciferase expression or activity, dose response, H4 neuroglioma cells, luminescence (AID 1990); format: functional, cell-based
[4] = inhibitors of SNCA 5'UTR-driven reporter translation, confirmation, H4 neuroglioma cells, luminescence (AID 1988); format: functional, cell-based
Cytochrome P450 3A4 = Cytochrome P450 3A4 (Homo sapiens, UniProt P08684); details: Potency;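 further: confirmatory qHTS run detecting inhibitors and substrates of CYP3A4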
[5] = cytotoxicity toward DRD oncogenic fibroblasts, dose response, cell-based, non-viral oncogenic, luminescence (AID 1934); format: functional; details: Homo sapiens
[6] = molecular target: T1, Replicative DNA helicase DnaB (Mycobacterium tuberculosis, UniProt P9WMR3); assay: DnaB intein splicing inhibitors, dose response, biochemical, cell-free fluorescence (AID 449749); format: functional
T1 sequence (P9WMR3 whole entry): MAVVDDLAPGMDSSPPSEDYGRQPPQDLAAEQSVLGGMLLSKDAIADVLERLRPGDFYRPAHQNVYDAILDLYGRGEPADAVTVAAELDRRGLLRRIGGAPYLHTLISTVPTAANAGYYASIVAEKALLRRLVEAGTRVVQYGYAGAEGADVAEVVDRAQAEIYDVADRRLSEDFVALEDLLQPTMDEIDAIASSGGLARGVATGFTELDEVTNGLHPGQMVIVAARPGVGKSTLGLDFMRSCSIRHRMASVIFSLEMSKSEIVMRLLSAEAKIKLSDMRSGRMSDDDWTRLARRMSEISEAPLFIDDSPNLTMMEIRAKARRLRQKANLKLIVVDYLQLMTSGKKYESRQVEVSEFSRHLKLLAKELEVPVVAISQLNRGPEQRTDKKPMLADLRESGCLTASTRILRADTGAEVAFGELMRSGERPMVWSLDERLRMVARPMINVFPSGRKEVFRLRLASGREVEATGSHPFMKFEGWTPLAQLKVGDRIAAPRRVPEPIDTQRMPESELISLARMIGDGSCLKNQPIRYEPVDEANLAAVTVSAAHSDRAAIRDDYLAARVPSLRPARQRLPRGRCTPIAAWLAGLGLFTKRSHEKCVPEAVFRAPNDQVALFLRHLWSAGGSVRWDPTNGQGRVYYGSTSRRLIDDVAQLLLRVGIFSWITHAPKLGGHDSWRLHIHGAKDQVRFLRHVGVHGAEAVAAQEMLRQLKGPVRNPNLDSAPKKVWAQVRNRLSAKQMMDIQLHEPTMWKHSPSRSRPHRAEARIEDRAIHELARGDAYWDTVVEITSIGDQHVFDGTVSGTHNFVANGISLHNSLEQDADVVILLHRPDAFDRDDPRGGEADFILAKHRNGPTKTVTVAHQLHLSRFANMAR

[7] = HEp-2 cell cytotoxicity, dose response, cytotoxicity control for RSV inhibitor project, HTS (AID 2410); format: functional; details: human respiratory syncytial virus
Protein RecA = molecular target: T2, Protein RecA (Mycobacterium tuberculosis, UniProt P9WHJ3); assay: Fluorescence Cell-Free Homogeneous Dose Retest to Identify Inhibitors of RecA-Intein Splicing Activity. [Related pubchem assays (depositor defined):AID2097, AID2223, AID489010, AID492950]; format: functional
T2 sequence (P9WHJ3 whole entry): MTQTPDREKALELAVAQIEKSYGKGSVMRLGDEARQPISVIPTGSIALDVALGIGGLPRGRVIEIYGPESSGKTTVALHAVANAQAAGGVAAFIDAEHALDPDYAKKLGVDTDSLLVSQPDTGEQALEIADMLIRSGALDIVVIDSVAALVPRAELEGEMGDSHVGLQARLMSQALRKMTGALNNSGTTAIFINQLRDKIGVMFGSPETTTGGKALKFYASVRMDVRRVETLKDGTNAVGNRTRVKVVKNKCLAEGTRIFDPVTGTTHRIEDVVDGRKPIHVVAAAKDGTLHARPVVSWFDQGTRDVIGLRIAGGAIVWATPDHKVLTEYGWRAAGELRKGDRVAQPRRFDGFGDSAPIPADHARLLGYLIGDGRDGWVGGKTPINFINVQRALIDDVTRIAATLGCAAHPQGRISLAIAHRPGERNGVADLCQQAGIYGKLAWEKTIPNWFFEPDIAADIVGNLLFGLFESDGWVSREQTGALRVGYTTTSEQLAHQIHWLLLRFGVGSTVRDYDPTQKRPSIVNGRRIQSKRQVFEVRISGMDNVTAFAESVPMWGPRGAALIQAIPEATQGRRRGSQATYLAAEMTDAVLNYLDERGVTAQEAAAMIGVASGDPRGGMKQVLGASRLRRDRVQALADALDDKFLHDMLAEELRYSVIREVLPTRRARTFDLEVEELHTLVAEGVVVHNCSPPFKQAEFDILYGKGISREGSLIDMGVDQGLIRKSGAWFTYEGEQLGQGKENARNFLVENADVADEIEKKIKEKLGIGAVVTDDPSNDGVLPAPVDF

BJ [8] = assay: cytotoxicity toward BJ-TERT fibroblasts, dose response, cell-based, RAS-independent, luminescence (AID 1933); format: functional; details: Homo sapiens
BJ [9] = assay: cytotoxicity toward BJ-TERT-LT-ST fibroblasts, dose response, cell-based, RAS-independent, luminescence (AID 1935); format: functional; details: Homo sapiens;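 further: BJ fibroblasts immortalized with TERT plus LT and ST oncogenes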
BJ [10] = assay: cells; format: functional, cell-based; details: Homo sapiens
[11] = molecular target: Luciferin 4-monooxygenase (Photinus pyralis, UniProt P08659); assay: firefly luciferase enzyme inhibitors, dose response, biochemical, luminescence (AID 1891)
[12] = Luminescence Cell-Based Dose Confirmation HTS to Identify Inhibitors of Platelet Dense Granule Release. [Related pubchem assays: 1663 (Primary HTS), 1678 (Summary of Project)]; format: functional
P388/ADR = assay: cells; format: functional; details: Mus musculus
P388 = assay: cells; format: functional; details: Mus musculus
SN12K1 = assay: cells; format: functional; details: Homo sapiens

Chain of Cytochrome P450 3A4 (P08684 whole entry): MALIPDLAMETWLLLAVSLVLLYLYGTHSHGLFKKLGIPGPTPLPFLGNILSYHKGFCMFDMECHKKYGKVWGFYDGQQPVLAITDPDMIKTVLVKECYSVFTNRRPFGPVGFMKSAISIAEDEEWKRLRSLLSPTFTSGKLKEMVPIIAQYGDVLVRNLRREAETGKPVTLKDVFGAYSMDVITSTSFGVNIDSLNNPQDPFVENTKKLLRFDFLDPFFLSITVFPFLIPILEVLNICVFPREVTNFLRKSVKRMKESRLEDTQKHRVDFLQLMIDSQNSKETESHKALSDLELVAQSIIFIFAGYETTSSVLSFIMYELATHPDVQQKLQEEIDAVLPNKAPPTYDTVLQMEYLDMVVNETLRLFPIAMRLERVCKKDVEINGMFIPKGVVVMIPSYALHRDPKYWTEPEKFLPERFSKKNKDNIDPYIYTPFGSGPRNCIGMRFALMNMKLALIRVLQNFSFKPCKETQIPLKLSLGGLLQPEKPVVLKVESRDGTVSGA
Chain of Luciferin 4-monooxygenase (P08659 whole entry): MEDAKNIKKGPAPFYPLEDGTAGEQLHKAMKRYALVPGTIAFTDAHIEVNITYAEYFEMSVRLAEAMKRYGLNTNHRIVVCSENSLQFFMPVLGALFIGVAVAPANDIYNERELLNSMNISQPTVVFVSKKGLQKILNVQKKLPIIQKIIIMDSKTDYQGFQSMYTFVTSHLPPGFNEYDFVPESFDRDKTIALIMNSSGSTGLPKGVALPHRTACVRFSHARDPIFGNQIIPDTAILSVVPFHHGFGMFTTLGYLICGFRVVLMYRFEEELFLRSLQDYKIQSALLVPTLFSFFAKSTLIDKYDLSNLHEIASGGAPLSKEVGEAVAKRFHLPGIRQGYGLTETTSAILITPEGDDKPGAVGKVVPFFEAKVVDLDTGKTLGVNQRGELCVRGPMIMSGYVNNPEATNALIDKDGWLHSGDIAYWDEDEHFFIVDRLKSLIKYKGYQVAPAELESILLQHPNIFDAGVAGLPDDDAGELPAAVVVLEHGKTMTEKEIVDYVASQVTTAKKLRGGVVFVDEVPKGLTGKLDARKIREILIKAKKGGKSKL

Structure (SMILES)	AC50 (Cytochrome P450 3A4)	GI50 (P388/ADR)	GI50 (P388)	GI50 (SN12K1)	further results
O=C(/C=C/c1c[nH]c2ccccc12)c1cccc2ccccc12					AC50 [1]: 2.92 µM (active)
CC(C)(C)c1cc(CSC(S)=NC2CCS(=O)(=O)C2)c(Br)c(C(C)(C)C)c1 (configuration not stated)					AC50 [1]: 3.19 µM (active)
CC(C)(C)c1ccc(OCCON2C(=O)CCC2=O)c(Cl)c1					EC50 [2]: 13.6 µM (active); EC50 [3]: > 120 µM (not active); EC50 [4]: 18.3 µM (active)
Cn1c(N)c(C(=O)COC(=O)c2cc(C3CC3)nc3ccccc23)c(=O)n(Cc2ccccc2)c1=O	15.8 µM (inconclusive)				
CCC(C)N(CC(=O)Nc1cccc(C)c1C)C(=O)CCl (configuration not stated)					EC50 [5]: 3.8 µM (active); AC50 [6]: 57.3 µM (active); CC50 [7]: 8.39 µM (active); EC50 (Protein RecA): 8.81 µM (active); EC50 (BJ [8]): 0.608 µM (active); EC50 (BJ [9]): 10.8 µM (active); EC50 (BJ [10]): 5.48 µM (active)
COc1ccc(-c2cc(-c3cccnc3)c(C#N)c(N)n2)cc1					EC50 [2]: 12.7 µM (active); EC50 [3]: 22 µM (active); EC50 [4]: 23 µM (active)
CC(C)(/N=N/C(C)(C)C(=N)N)C(=N)N	39.8 µM (inconclusive)				
COc1cc2cc(C(=O)N3CCN(Cc4ccc5c(c4)OCO5)CC3)[nH]c2cc1OC					EC50 [2]: > 120 µM (not active); EC50 [11]: > 112 µM (not active); EC50 [3]: > 120 µM (not active); EC50 [4]: > 120 µM (not active); EC50 [12]: > 112 µM (not active)
COC1=C[C@H]2[C@H]3Cc4ccc(OC)c(O)c4[C@@]2(CCN3C)CC1=O	31.6 µM (inconclusive)				
COc1ccc(Oc2c(C)oc3cc(OC(=O)N4CCOCC4)ccc3c2=O)cc1					EC50 [2]: > 120 µM (not active); EC50 [3]: > 120 µM (not active); EC50 [4]: 59.2 µM (active)
Oc1cc(Cl)ccc1Cl	31.6 µM (inconclusive)				
COC(=O)C(C(=O)OC)C1O[C@@]23COCCC2(C)C3c2ccccc21 (some centres not stated)	3.16 µM (inconclusive)				
CCCCCCn1c(SCC(C)C)nc2c1c(=O)[nH]c(=O)n2C					EC50 [2]: > 120 µM (not active); EC50 [3]: 15.4 µM (active); EC50 [4]: 18.8 µM (active)
COc1cc(-c2ccc3oc(-c4cccc(C)c4)c(C#CC4(O)CCCCC4)c3c2)cc(OC)c1OC					AC50 [1]: 8.67 µM (active)
CN(C)C(=O)N(CCCl)N=O		> 100 µM (inactive)	> 100 µM (inactive)	> 100 µM (inactive)	
CCCCc1nccc2c(C)c3[nH]c4ccccc4c3cc12		2 µM (inactive)	1.77 µM (inactive)	2.14 µM (inactive)	
CN(C)CC1CC/C(=C\c2ccc(Cl)cc2)C1=O (configuration not stated)		0.509 µM (active)	0.31 µM (active)	2.21 µM (inactive)	
Cc1ccc(S(=O)(=O)Oc2cc(-c3ccccc3)nc3ccccc23)cc1		1.91 µM (inactive)	1.15 µM (inactive)	1.61 µM (inactive)	
O=S1(=O)C(=C(c2ccccc2)c2ccccc2)S(=O)(=O)c2ccccc21		> 100 µM (inactive)	> 31.6 µM (inactive)	28.2 µM (inactive)	
CCCCCCCCCCCC[S+](C)C		27.8 µM (inactive)	0.236 µM (active)	5.33 µM (inactive)	
COc1ccc2c(c1)CCc1c(CO)c(COC(=O)NC(C)C)n(C)c1-2		2.2 µM (inactive)	1.17 µM (inactive)	3.32 µM (inactive)	
O=c1[nH]c(=O)n([C@H]2CCCO2)cc1F		37.7 µM (inactive)	24.3 µM (inactive)	369 µM (inactive)	
Cc1c2ccccc2c(C)c2c1ccc1ccccc12	12.6 µM (inconclusive)				
O=C(/C=C/c1ccccc1)c1ccc(O)cc1 [4'-HYDROXYCHALCONE]	39.8 µM (inconclusive)				
O=C1C=CC(=O)c2c(O)cccc21 [JUGLONE]	39.8 µM (inconclusive)				
CNNCc1ccc(C(=O)NC(C)C)cc1 [PROCARBAZINE HYDROCHLORIDE]		> 485 µM (inactive)	> 500 µM (inactive)	> 456 µM (inactive)	
